Test results from patent publication US20050130894A1, “Process for the synchronization of ovulation for timed breeding without heat detection” (priority 2003, published 2005).

How the values were obtained:
Assay type in all cases: in vivo, swine
[1] = test system: postpartum sows; test: Litter size after deslorelin treatment in postpartum sows, three farm sites (Example 4); settings: regardless of estrus detection, Tables 3-5
From the text: (§1) Postpartum sows were randomly distributed into three different groups comprised of Controls, Treatment 1, and Treatment 2, with the exception of Site 3, which was divided into two groups, Control and Treatment 2. Control sows were detected for estrus following weaning, and bred following the normal standard operating procedures for the farms on which they resided. Treatment 1 sows were detected for estrus following weaning, and received a 50 mcg dose of deslorelin in the morning when standing and were bred by AI 4 hours later and again at 24+/−2 hours later. Treatment 2 sows received a 50 mcg dose of deslorelin in SAIB at 96 or 120 hours post-weaning and were bred with a single insemination 28+/−2 hours later with no regard to estrus detection.

[2] = test system: postpartum sows; test: Pregnancy rate after deslorelin treatment in sows, summary of data of Tables 2-5; settings: Table 6
Experimental: as §1, with “Approximately 170 postpartum sows were randomly divided into two equal groups comprised of controls and treated. Following weaning, the controls were detected for estrus and bred following the normal standard operating procedures for the farms on which they resided. The treated sows received a 50 mcg dose of deslorelin in SAIB at 96 hours post-weaning and were bred with a single insemination 28+/−2 hours later with no regard to estrus detection. The sows were examined for pregnancy by ultrasound at 21 days and slaughtered around 28 days post breeding. The entire reproductive tract was removed and corpora lutea and embryos were counted. Postpartum” for “Postpartum”, “detection. […]” for “detection.”

[3] = test system: postpartum sows; test: Single timed injection 96 hours post-weaning, single timed insemination without estrus detection (Example 3); settings: 50 mcg in SAIB at 96 hours post-weaning
Experimental: Approximately 170 postpartum sows were randomly divided into two equal groups comprised of controls and treated. Following weaning, the controls were detected for estrus and bred following the normal standard operating procedures for the farms on which they resided. The treated sows received a 50 mcg dose of deslorelin in SAIB at 96 hours post-weaning and were bred with a single insemination 28+/−2 hours later with no regard to estrus detection. The sows were examined for pregnancy by ultrasound at 21 days and slaughtered around 28 days post breeding. The entire reproductive tract was removed and corpora lutea and embryos were counted.

[4] = test system: mature postpartum sows; test: Intravulvar injection at estrus detection in mature postpartum sows, AI breeding (Example 2)
Experimental: Sows were assigned randomly in blocks of two to either control or to be injected intravulvar with 50 mcg of deslorelin in SAIB at the time of estrus detection for sows first detected in estrus in the a.m. and 12 hours later for those first detected in estrus in the p.m. Treated animals were bred AI upon detected estrus and again 24 hours later if still in estrus. Controls received a saline injection on first detected estrus behavior estrus detection and were bred according to the farm's normal procedures.

CCNC(=O)[C@@H]1CCCN1C(=O)[C@H](CCCN=C(N)N)NC(=O)[C@H](CC(C)C)NC(=O)[C@@H](Cc1c[nH]c2ccccc12)NC(=O)[C@H](Cc1ccc(O)cc1)NC(=O)[C@H](CO)NC(=O)[C@H](Cc1c[nH]c2ccccc12)NC(=O)[C@H](Cc1cnc[nH]1)NC(=O)[C@@H]1CCC(=O)N1 [Deslorelin, deslorelin]
Litter sizes (in words) [1]: normal litter sizes | Pregnancy rates (in words) [2]: normal pregnancy rates were obtained | Embryo Survival [3]: 64% | Sows Pregnant ([3]; single insemination 28+/-2 hours later, 84 in group): 60 | Pregnancy Rate ([3]; single timed insemination, no estrus detection): 71% | Pregnancy Rate ([4]; 50 μg deslorelin acetate (1 ml) intravulvar at first estrus detection, AI, AI again if in estrus next day, n = 75): 91% | Length of Estrus ([4]; 50 μg deslorelin acetate (1 ml) intravulvar at first estrus detection, n = 69): 40.81 h | Live piglet number, Deslorelin versus Saline sows (difference) ([4]; 50 μg intravulvar at first estrus detection, live piglets born per litter, greater than control): Live piglet number 0.6> in Deslorelin versus Saline sows.
